Laboratory results published in US20240197700A1, “Methods and Compositions for Treating Lysosomal Storage Disorders” (Sanford Health, priority 2021, published 2024).
“Also recorded” adds a separate entry of the source.

What was measured:
Cathepsin D = Cathepsin D enzyme in MEF lysates; format: cell-based, mouse
Method: Since LM11A-31 stimulates the nuclear translocation of transcription factors responsible for lysosome biogenesis, we asked whether LM11A-31 increases the overall activity levels of lysosomalenzymes in cellulo. […] Wild type (WT) and mutant cells were treated with vehicle or LM11A-31 (100 nM). Cells were plated on day 0 and dosed with drug-containing media on DIV3 and DIV5. Cells were lysed, and protein quantification and enzyme activity assay were performed on DIV7. Data was analyzed with GraphPad Prism™. Two-way ANOVA. Mean±S.E.M. Tukey's multiple comparisons test. *p<0.05, **p<0.01, ***p<0.001, ****p<0.0001. […] Palmitoyl-protein thioesterase 1 (PPT1) is the lysosomal enzyme mutated in CLN1 disease and removes thioester-linked fatty acyl groups from modified cysteines of substrate proteins. Tripeptidyl peptidase 1 (TPP1) is the lysosomal enzyme mutated in CLN2 disease and has broad substrate specificity against various proteins degraded in the lysosome after cleavage. Mutations in the CTSD gene, encoding cathepsin d, a lysosomal protease that is involved in the recycling and degradation, is a known cause of Cln10 disease.

TFEB target genes = experiment: Comparative transcriptomic analysis (RNA sequencing, DEGs) in wild type MEFs; format: cell-based, mouse; settings: 40 nM, dosed DIV3, RNA isolation DIV5
Method: Comparative transcriptomic analysis of differentially expressed genes in AF38469 treated and vehicle treated wild type mouse embryonic fibroblasts. Wild type mouse embryonic fibroblasts were treated with vehicle or AF38469 (40 nM). Cells were plated on in vitro day 0, and cells were dosed with drug-containing media on DIV3, collection and RNA isolation occurred on DIV5. RNA sequencing and differentially expressed gene (DEG) analysis was performed with Novogene. DEGs were compared to lists of lysosomal genes and genes under TFEB regulation.

Cln2^R207X mice = experiment: Tremor index score on force plate actimeter in Cln2^R207X mice; format: in vivo, mouse; settings: for tremor index score: 10 weeks of age
Method: Specific experimental details are included in figure legends. In general, after collection and preparation, MEFs and PNCs were dosed with vehicle or AF38469 (40 nM, 400 nM. or 4 μM) on DIV3 and DIV5. On DIV7, cells were treated with the following dyes: Hoechst 33342 (1:1000 dilution), LysoTrackerT™ Red DND-99 (1:10,000 dilution), fixed, and imaged. Mice were given vehicle or AF38469 (78.125 μg/ml, 3.125 μg/ml, 0.3125 μg/ml or 0.03125 μg/ml equating approximately to 250 μg/mouse/day, 10 μg/mouse/day, 1 μg/mouse/day, and […], respectively, given a mouse's daily water intake of approximately 3.2 ml per day) in drinking water beginning at wean. Body weight was measured bi-weekly, and a force actimeter test was performed on Cln2^R207X mice at 10 weeks of age. Body weight was measured every month for Cln3^Δex7/8 mice. At 11 and 16 weeks of age, respectively, Cln2^R207X and Cln3^Δex7/8 mice along with age matched wild type control mice were CO2 euthanized and intracardially perfused with PBS. Brains were collected and placed on a 1 mm sagittal brain block. Brains were sliced at the midline and 3 mm right of the midline. One hemisphere was fixed in 4% PFA and sectioned at 50 microns on a vibratome. Immunohistochemistry was performed on free-floating sections. For mitochondrial ATP synthase subunit C (SubC), glial fibrillary acidic protein (GFAP), and cluster of differentiation 68 (CD68) immunolabeling, primary antibodies included anti-SubC (Abcam, ab181243; 1:1000), anti-GFAP (Dako, Z0334; 1:5000), anti-CD68 (AbD Serotec, MCA1957; 1:2000), and secondary antibodies included anti-rabbit biotinylated (Vector Labs, BA-1000 1:1000) and anti-rat (Vector Labs, BA-9400 1:1000). Coverslips were mounted on slides using antifade-mounting media and were stored in the dark before imaging. Sections were imaged and analyzed using an Aperio Digital Pathology Slide Scanner (AT2) and associated software. Images were extracted from S1BF of the somatosensory cortex and the VPM/VPL of the thalamus, with multiple images taken of multiple tissues from each animal.
Short-term chronic treatment with AF38469 reduced tremor phenotype in Cln2^R207X mice. Beginning at wean, wild type and Cln2^R207X mice were treated with vehicle (0.2408% DMSO) or AF38469 (0.03125 μg/ml, 0.3125 μg/ml, 3.125 μg/ml, 78.125 μg/ml) continuously through the drinking water. At 10 weeks of age, wild type and Cln2^R207X mice were evaluated on the force plate actimeter. Evaluation of tremors with the force plate actimeter software produces a tremor index score based on the tremor frequency 5-10 Hz (A), 10-15 Hz (B), 15-20 Hz (C) and 20-25 Hz (D). Data was analyzed with Graphpad. Two-way ANOVA. Mean±S.E.M. Dunnett's multiple comparisons test. *p<0.05, **p<0.01, ***p<0.001, ****p<0.0001. […]

[1] = Stability of semaglutide in solution (vehicle formulation); format: physicochemical; settings: 4° C.
Method: In in vitro models, semaglutide (Creative Peptides, Catalog #910463-68-2) was tested in concentrations of 10 nM, 100 nM, and 1 μM in 1% DMSO. Vehicle treated cells were dosed with 1% DMSO. In in vivo models, semaglutide (Creative Peptides, Catalog #910463-68-2) was tested in concentrations of 2.571 μg/mouse and 25.71 μg/mouse prepared using the vehicle formulation for a total injection volume of 0.2 ml. Compound was stable in solution for 56 days at 4° C. Semaglutide was utilized at 98% HPLC purity.

CC[C@H](C)[C@H](N)C(=O)NCCN1CCOCC1 [LM11A-31, N-[2-(morpholin-4-yl)ethyl]-L-isoleucinamide]
levels of Cathepsin D (Cathepsin D; LM11A-31 100 nM, Cln2^R207X and Cln3^Δex7/8 MEFs, DIV7): significantly decreased | overall levels of activity for Cathepsin D enzyme in cell lysates (Cathepsin D; LM11A-31, overall statement (FIG. 15B)): increased the overall levels of activity

Cc1cccc(NC(=O)c2ccc(C(F)(F)F)cc2C(=O)O)n1 [AF38469, 2-((6-methylpyridin-2-yl)carbamoyl)-5-(trifluoromethyl)benzoic acid]
all lysosomal differentially expressed genes or lysosomal genes not regulated by TFEB (TFEB target genes): no distinct pattern of up or down regulation | expression of TFEB target genes (TFEB target genes): stimulated increased expression; also recorded: stimulates; also recorded: distinct pattern of upregulation | tremor index score (Cln2^R207X mice; 5-10 Hz, vs vehicle Cln2^R207X): had no impact | tremor index score (Cln2^R207X mice; 10-15 Hz, 0.3125 μg/ml): significantly reduced | tremor index score (Cln2^R207X mice; 15-20 Hz and 20-25 Hz, 0.03125 μg/ml, 0.3125 μg/ml, 3.125 μg/ml): significantly reduced | tremor index scores (Cln2^R207X mice; lower concentrations, summary statement): significantly reduce

semaglutide
stable in solution [1]: 56 days
